Measurements: patent US8318184B2, “MGLU2 agonists” (Eli Lilly and Company, priority 2009, dated 2012)
pIC50: −log10 of the molar value.

Molecular target: T1, hPepT1 (Homo sapiens, UniProt P46059)
T1 construct: expressed in transfected cells; host or cells: HeLa cells (ATCC), transient transfection with FuGene6
T1 sequence (P46059 1-708): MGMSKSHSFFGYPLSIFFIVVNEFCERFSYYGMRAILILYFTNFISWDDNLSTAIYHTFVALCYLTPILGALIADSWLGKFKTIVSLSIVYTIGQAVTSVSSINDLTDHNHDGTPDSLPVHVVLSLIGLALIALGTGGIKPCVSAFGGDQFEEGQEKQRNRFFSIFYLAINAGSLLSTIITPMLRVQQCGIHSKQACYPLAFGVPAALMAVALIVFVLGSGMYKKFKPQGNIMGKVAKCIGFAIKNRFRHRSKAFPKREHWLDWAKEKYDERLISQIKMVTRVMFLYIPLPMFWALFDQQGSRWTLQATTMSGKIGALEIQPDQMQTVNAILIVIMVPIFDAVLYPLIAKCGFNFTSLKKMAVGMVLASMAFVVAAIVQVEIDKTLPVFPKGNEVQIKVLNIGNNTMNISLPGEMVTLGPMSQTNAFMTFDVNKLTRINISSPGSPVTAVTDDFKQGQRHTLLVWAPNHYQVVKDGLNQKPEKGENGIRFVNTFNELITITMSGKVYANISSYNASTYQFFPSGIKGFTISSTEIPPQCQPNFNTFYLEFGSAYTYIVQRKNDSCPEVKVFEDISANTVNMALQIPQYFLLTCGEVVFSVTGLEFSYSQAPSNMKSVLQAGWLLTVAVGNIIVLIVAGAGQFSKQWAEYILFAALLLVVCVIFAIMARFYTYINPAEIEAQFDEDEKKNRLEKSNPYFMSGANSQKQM
Assay: In Vitro PepT1 GlySar Inhibition Screen and IC50 Determination
Type: cell-based
Method: PepT1 assays are established to examine the ability of the amino acid prodrug compounds to interact with the intestinal absorption transporter PepT1.
HeLa cells, […], (American Type Culture Collection) are grown in Hyclone Medium (Invitrogen, Cat# SH30243) containing 10% fetal bovine serum (FBS), 0.1 mM non essential amino acids (NEAA), and 100 units/mL penicillin with 100 μg/mL streptomycin at 37° C. in a 5% CO2 humidified atmosphere. The cell line is used for up to 40 passages and then discarded. Frozen cells in 1 ml vials are thawed in water bath for 1-2 minutes and added to 5 mL of cell medium at 37° C. Each of the T-flasks is provided with 8.5 mL of the fresh medium and 1.5 mL of the cell stock. Cells are passaged twice during a week. This is achieved by rinsing the flasks with 10 mL of phosphate buffered saline-ethylene diaminetetra acetic acid (PBS-EDTA), adding 2 mL of trypsin for 2-5 minutes, to detach the cells, and adding 8 mL of fresh medium to inhibit further activity of trypsin. Each new flask receives a combination of 8.5 mL of fresh medium and 1.5 mL of cell stock, in order to obtain 1:6 cell dilution. Cells are incubated at 37° C., until ready for the uptake study.
Cells that are 70-80% confluent in the T-flasks are plated 1 day prior to the transfection procedure. The flask with the cell stock is treated with PBS-EDTA and trypsin to detach the cells, and transfection medium is used from this point. Transfection medium consists of Dulbecco's Modified Eagle Medium (DMEM)+NEAA. To each well, 0.5 mL of the cell mixture is added (1.3×10^5 is the desired cell concentration) and the cells are incubated at 37° C. overnight. Twenty four hours before the assay, cells are transfected with PEPT1. Transfection mixture is prepared by mixing 600 μL of serum free transfection medium, 18 μL of FuGene6 (Roche Diagnostics), and 11 μg of the PepT1 DNA. The transfection reagent-DNA complex is incubated for 20 minutes and 24 μL of the reagent-DNA complex is added to each well.
J. Pharm. Exper Ther. 310:437-445). […] Uptake media consists of 140 mM NaCl, 5.4 mM KCl, 1.8 mM CaCl2, 0.8 mM MgSO4, 5 mM Glucose, 25 mM tris(hydroxymethyl)aminomethane buffer (TRIS). The solution is then brought to pH 6.0 using 2-(N-morpholino)ethanesulfonic acid. The incubation volume is 500 μL and is performed at room temperature for 3 minutes. To stop the uptake at the conclusion of the incubation time, the uptake media is aspirated off of the cell monolayer and 500 μL of ice cold PBS added to the well. The cells are washed 3 times with 500 μL of room temperature PBS without Ca^+2 and Mg^+2. The cells are then lysed with 300 μL of 1% Triton X100 H2O solution. […] A no inhibitor control is established and the percent inhibition of each prodrug is calculated with respect to this control.
The incubation and sampling procedures are exactly the same as the PepT1 screen described above. […]

C[C@H](N)C(=O)N[C@@]1(C(=O)O)C[C@@H](Sc2nnc[nH]2)[C@H]2[C@H](C(=O)O)[C@H]21.Cl [Example 2, (1R,2S,4R,5R,6R)-2-[[(2S)-2-Aminopropanoyl]amino]-4-(1H-1,2,4-triazol-3-ylsulfanyl)bicyclo[3.1.0]hexane-2,6-dicarboxylic acid hydrochloride]
inhibition at 5000 µM (5 mM, pH 6.0, PepT1 transiently transfected HeLa cells, read-out: hPepT1 [3H]Gly-Sar uptake inhibition at 5 mM): 38%
pIC50 (0.0625 to 25 mM, PepT1 transfected HeLa cells, read-out: hPepT1 [3H]Gly-Sar uptake inhibition IC50): 2.74
